US6806229B1, “Herbicidally active pyridine sulfonyl urea derivatives” (LG Life Sciences, priority 2003, dated 2004)
Read-outs that look alike come from different tables or passages of the source.

How the values were obtained:
Type in all cases: in vivo
[1] = tested on: Eleocharis kuroguwai (ELOKU); assay: Weed spectrum in paddy field, ELOKU; settings: 20 g/ha; tubers planted 4 cm deep; applied after 5 days; observed two weeks
Experimental: (§1) Suitable herbicidal compositions were prepared by mixing and dissolving 1 part by weight of the active compound with 5 parts by weight of acetone and 1 part by weight of alkylaryl polyglycolether as an emulsifier and then diluting with water to the predetermined concentration. Application was made by dropping the herbicide solutions onto the water surface of the pots.
(§2) Pots having a surface area of 500 cm^2 were filled with the soil in a muddy state as mentioned above. Seeds of annual weeds such as Monochoria vaginaiis (MOOVA), Lindernia procumbens (LIDPR), Rotala indica (ROTIN), Scirpus jumcoides (SCPJU), etc. were sown on the surface layer of soil, and then were planted tubers of perennial weeds such as Cyperus serotinus (CYPSE) and Sagittaria pygmaea (SAGPY) in a depth of 1 cm, and Eleocharis kuroguwai (ELOKU) and Sagittaria trifolia (SAGTR) in a depth of 4 cm. After 5 days, the chemicals were formulated as mentioned above and applied by dropping to the water surface of the pots.

Rotala indica (ROTIN) = assay: Weed spectrum in paddy field, ROTIN; settings: 20 g/ha; applied 5 days after sowing; observed two weeks
Experimental: as §1, §2

[2] = tested on: Cyperus serotinus (CYPSE); assay: Weed spectrum in paddy field, CYPSE; settings: 20 g/ha; tubers planted 1 cm deep; applied after 5 days; observed two weeks
Experimental: as §1, §2

[3] = tested on: Scirpus jumcoides (SCPJU); assay: Weed spectrum in paddy field, SCPJU; settings: 20 g/ha; applied 5 days after sowing; observed two weeks
Experimental: as §1, §2

[4] = tested on: Lindernia procumbens (LIDPR); assay: Weed spectrum in paddy field, LIDPR; settings: 20 g/ha; applied 5 days after sowing; observed two weeks
Experimental: as §1, §2

[5] = tested on: Sagittaria trifolia (SAGTR); assay: Weed spectrum in paddy field, SAGTR; settings: 20 g/ha; tubers planted 4 cm deep; applied after 5 days; observed two weeks
Experimental: as §1, §2

Oryza sativa = assay: Phytotoxicity to rice (direct-seeded and transplanted) in paddy condition, greenhouse pot test; settings: visual rating after two weeks; for Phytotoxicity, Oryza sativa, Seed: direct-seeded rice, treated 5 days after sowing; for Phytotoxicity, Oryza sativa, Transplanted: transplanted rice seedlings, treated 5 days after transplanting
From the text: (§3) Pots having a surface area of 150 cm^2 were filled with a small amount of fertilizer and sterilized paddy field soil in a muddy state with a depth of 5 cm. Five (5) seeds of pre-germinated rice were directly sown on the soil surface and three (3) rice seedlings (2˜3 leaves) prepared in advance were transplanted in a depth of 2 cm in each pot. In another pot, seeds of barnyardgrass were sown and incorporated into the surface layer of soil. After sowing and transplanting of rice plant and sowing of barnyardgrass, the pots were flooded with water 3 cm deep and kept in a greenhouse. The rice plant was treated with the chemicals 5 days after sowing or transplanting, and barnyardgrass was treated with the chemicals at the pre-emergence (5 days after from sowing) and post-emergence stage (at the three-leaf stage, usually after 15 days from sowing).
as §1

Echinochloa crus-galli = assay: Herbicidal activity to barnyardgrass in paddy condition, pre- and post-emergence, greenhouse pot test; settings: Echinochloa crus-galli, 336 h, visual rating after two weeks
From the text: as §3, §1

[6] = tested on: Monochoria vaginaiis (MOOVA); assay: Weed spectrum in paddy field, MOOVA; settings: 20 g/ha; applied 5 days after sowing; observed two weeks
Experimental: as §1, §2

[7] = tested on: Sagittaria pygmaea (SAGPY); assay: Weed spectrum in paddy field, SAGPY; settings: 20 g/ha; tubers planted 1 cm deep; applied after 5 days; observed two weeks
Experimental: as §1, §2

[8] = 80 g/ha, 0 = none, 100 = complete death
[9] = post-emergence, three-leaf stage, read-out: Herbicidal activity, Echinochloa crus-galli, Post-emergence (3-Leaf stage)
[10] = pre-emergence (5 days after sowing), read-out: Herbicidal activity, Echinochloa crus-galli, Pre-emergence
[11] = pre-emergence (5 days after sowing), 0 = no activity, 100 = complete death, read-out: Herbicidal activity, Echinochloa crus-galli, Pre-emergence

COCC(=O)O[C@H](c1ncccc1S(=O)(=O)NC(=O)Nc1nc(OC)cc(OC)n1)[C@H](C)F [Com. 2]
Weed spectrum, Perennial weeds, ELOKU [1]: 95 | Weed spectrum, Annual weeds, ROTIN (Rotala indica (ROTIN)): 100 | Weed spectrum, Perennial weeds, CYPSE [2]: 100 | Weed spectrum, Annual weeds, SCPjU [3]: 100 | Weed spectrum, Annual weeds, LIDPR [4]: 100 | Weed spectrum, Perennial weeds, SAGTR [5]: 90 | Phytotoxicity, Oryza sativa, Seed (Oryza sativa; 10 g/ha): 0% | Phytotoxicity, Oryza sativa, Transplanted (Oryza sativa; 10 g/ha): 0% | Phytotoxicity, Oryza sativa, Seed (Oryza sativa; 20 g/ha): 0% | Phytotoxicity, Oryza sativa, Transplanted (Oryza sativa; 20 g/ha): 0% | Phytotoxicity, Oryza sativa, Seed (Oryza sativa; 40 g/ha): 20% | Phytotoxicity, Oryza sativa, Transplanted (Oryza sativa; 40 g/ha): 10% | Phytotoxicity, Oryza sativa, Seed (Oryza sativa; [8]): 30% | Phytotoxicity, Oryza sativa, Transplanted (Oryza sativa; 80 g/ha): 10% | pest or weed control at 5 g/ha (Echinochloa crus-galli; [9]): 50% | pest or weed control at 5 g/ha (Echinochloa crus-galli; [10]): 60% | pest or weed control at 10 g/ha (Echinochloa crus-galli; [9]): 90% | pest or weed control at 10 g/ha (Echinochloa crus-galli; [10]): 100% | pest or weed control at 20 g/ha (Echinochloa crus-galli; [9]): 100% | pest or weed control at 20 g/ha (Echinochloa crus-galli; [10]): 100% | pest or weed control at 30 g/ha (Echinochloa crus-galli; [9]): 100% | pest or weed control at 30 g/ha (Echinochloa crus-galli; [11]): 100% | Weed spectrum, Annual weeds, MOOVA [6]: 100 | Weed spectrum, Perennial weeds, SAGPY [7]: 95

COCCC(=O)O[C@H](c1ncccc1S(=O)(=O)NC(=O)Nc1nc(OC)cc(OC)n1)[C@H](C)F [Com. 4]
Weed spectrum, Perennial weeds, ELOKU [1]: 95 | Weed spectrum, Annual weeds, ROTIN (Rotala indica (ROTIN)): 100 | Weed spectrum, Perennial weeds, CYPSE [2]: 100 | Weed spectrum, Annual weeds, SCPjU [3]: 100 | Weed spectrum, Annual weeds, LIDPR [4]: 100 | Weed spectrum, Perennial weeds, SAGTR [5]: 85 | Phytotoxicity, Oryza sativa, Seed (Oryza sativa; 10 g/ha): 0% | Phytotoxicity, Oryza sativa, Transplanted (Oryza sativa; 10 g/ha): 0% | Phytotoxicity, Oryza sativa, Seed (Oryza sativa; 20 g/ha): 0% | Phytotoxicity, Oryza sativa, Transplanted (Oryza sativa; 20 g/ha): 0% | Phytotoxicity, Oryza sativa, Seed (Oryza sativa; 40 g/ha): 20% | Phytotoxicity, Oryza sativa, Transplanted (Oryza sativa; 40 g/ha): 10% | Phytotoxicity, Oryza sativa, Seed (Oryza sativa; [8]): 30% | Phytotoxicity, Oryza sativa, Transplanted (Oryza sativa; 80 g/ha): 20% | pest or weed control at 5 g/ha (Echinochloa crus-galli; [9]): 60% | pest or weed control at 5 g/ha (Echinochloa crus-galli; [10]): 60% | pest or weed control at 10 g/ha (Echinochloa crus-galli; [9]): 90% | pest or weed control at 10 g/ha (Echinochloa crus-galli; [10]): 95% | pest or weed control at 20 g/ha (Echinochloa crus-galli; [9]): 100% | pest or weed control at 20 g/ha (Echinochloa crus-galli; [10]): 100% | pest or weed control at 30 g/ha (Echinochloa crus-galli; [9]): 100% | pest or weed control at 30 g/ha (Echinochloa crus-galli; [11]): 100% | Weed spectrum, Annual weeds, MOOVA [6]: 100 | Weed spectrum, Perennial weeds, SAGPY [7]: 90
